Data as given in patent US20050009057A1, “Assay for detecting the presence of processing inhibitory antibodies against the Apical Membrane Antigen-1 of Plasmodium falciparum in biological samples” (priority 2003, published 2005).
Where two headings read alike, the source gives them in different places.

Legend:
[1] = system: PfAMA-1 processing on merozoites; experiment: AMA-1 processing assay / processing inhibition assay (PIA), western blot; assay type: cell-based, P. falciparum clone 3D7; conditions: for accumulation of PfAMA-1 66: FIG. 6A, 6B; for formation of trapped PfAMA-1 52 and PfAMA-1 48+44: with trapping antibodies (1:2500 anti-AMA-1 sera pool)
Procedure: AMA-1 processing assay, or processing inhibition assay (PIA). P. falciparum clone 3D7 cultures were prepared as described previously (Haynes and Moch, 2002, Methods Mol. Med. 72, 489-497), culture media included 10% heat inactivated normal human serum in bicarbonate-containing RPMI 1640 containing final 0.42 mM Ca^+2 and 0.40 mM Mg^+2. Fifteen microliters of heat inactivated rabbit serum (dialyzed against RPMI 1640 or used directly after heat inactivation) or purified IgG or Fab fragments was mixed with 135 μl of synchronized (Haynes and Moch, 2002, supra), Percoll-alanine purified (Kanaani and Ginsburg, 1989, J. Biol. Chem. 264, 3194-3199), mid-stage (˜8 nuclei), >90% pure schizonts (1×10^7 per ml) in a 48 well culture plate. PBS was used as a diluent if necessary. The plate was placed in a plastic bag, gassed with 5% O2-5% CO2, heatsealed, and incubated at 37° C. for ˜6 h (Haynes et al., 2002, Methods Mol. Med. 72, 535-554). Aliquots from a control culture flask were taken to monitor the percent rupture of schizonts by hemocytometer. After ˜90% schizonts had ruptured, the contents of each well were transferred to a microfuge tube and centrifuged at 10,000× g for 5 min. The supernatant was aspirated and the resulting parasite pellet was washed with 0.5 ml chilled PBS and centrifuged as before. The supernatant was discarded and 150 μl of 1× NuPAGE sample buffer (Invitrogen) was added to the tubes, samples were frozen at −30° C. until analyzed. Soluble forms of AMA-1 were immuno-precipitated from the processing assay culture supernatants or from culture supernatant of routinely maintained parasites using MagnaBind Goat anti-Rabbit IgG coated Magnetic Beads (Pierce). Two types of western blots have been used to detect AMA-1 fragments. First set of westerns in FIGS. 1 to 6 have been developed using biotinylated polyclonal IgG against recombinant AMA-1. A second set of western blots, FIG. 6 onwards, has been developed using two biotinylated primary antibodies, mAb 28G2dc1 (1:1000) and polyclonal anti-AMA-1 IgG (1:1000) used simultaneously in order to immunostain all the AMA-1 specific fragments on the blot.
(§1) Protease inhibitors. Protease inhibitors were tested for their effect on AMA-1 processing. All inhibitors were from Sigma Chemicals. PMSF, pepstatin and TPCK were dissolved in 100% ethanol. Antipain, leupeptin, and 1,10-phenanthroline stocks were made in water. EDTA and EGTA stocks were made in PBS (pH adjusted to 7.2), TLCK was prepared in 1 mM HCl, E64 and chymostatin were prepared in DMSO. All stocks were at 100× concentration. 1.5 μl of the protease inhibitor or its respective solvent control was added to 15 μl PBS and then 135 μl of (1×10^7/ml) Percoll purified mid-stage schizonts were added. The processing assay was carried out as described above. Parallel assay with protease inhibitors was carried out in two similarly prepared plates to which RBC were also added to a final 4% hematocrit. Parasites in the first plate were allowed to invade in suspension at 37° C. and thin smears were prepared after the rupture cycle for giemsa staining and examination for the presence of Protease inhibitor Clusters of Merozoites (PCM) (Lyon and Haynes, 1986, J. Immunol. 136, 2245-2251). In the second plate parasites (135 μl of 5×10^6/ml schizonts+RBC at 4% hematocrit) were incubated overnight and ring forms were quantitated by flow cytometry as a measure of parasite invasion (Haynes et al., 2002, supra).
PAGE and Western blotting. Samples were briefly sonicated with a microtip sonicator, heated at 80° C. for 2 min, spun down and 16 μl was applied per well to a precast 4-12% gradient polyacrylamide gel (NuPAGE Bis-Tris; Invitrogen). Samples were run under non-reduced conditions unless specified. DTT at 50 mM was added to samples resolved under reduced conditions. Proteins from the gel were electrophoretically transferred to nitrocellulose membrane and blocked with 5% BSA in PBS containing 0.05% Tween-20 overnight at 4° C. […]

[2] = system: P. falciparum merozoite invasion of RBC; experiment: microbe, parasite or virus in culture; assay type: cell-based, Plasmodium falciparum; conditions: for inhibition of RBC invasion: 1 mM
Procedure: as §1

P. falciparum schizonts = experiment: Giemsa stained thin smears after rupture cycle (schizont maturation, PCM); assay type: cell-based, Plasmodium falciparum; conditions: for Protease inhibitor Clusters of Merozoites (PCM) on giemsa stained slides / schizont maturation / development on giemsa stained thin smears: inhibitor concentrations as in FIG. 6A
Procedure: as §1

[3] = EDTA, EGTA 1 mM (2-0.25 mM in dose response)

Row | Compound | formation of trapped PfAMA-1 52 and PfAMA-1 48+44 [1] | Protease inhibitor Clusters of Merozoites (PCM) on giemsa stained slides (P. falciparum schizonts) | schizont maturation / development on giemsa stained thin smears (P. falciparum schizonts) | also measured
1 | CC(C)C[C@H](NC(=O)[C@@H](NC(=O)N[C@@H](Cc1ccccc1)C(=O)O)[C@@H]1CCN=C(N)N1)C(=O)N[C@H](C=O)Cc1ccccc1 [chymostatin] | formation of both PfAMA-152 and PfAMA-148+44 were inhibited | PCM's were observed | did not block schizont development | accumulation of PfAMA-1 66 ([1]; chymostatin 100-12.5 μM): found to accumulate; inhibition at 100 µM ([2]; Plasmodium falciparum, read-out: inhibition of merozoite invasion): > 90%
2 | Cc1ccc(S(=O)(=O)N[C@@H](CCCCN)C(=O)CCl)cc1 [TLCK] | – | – | interrupted schizont maturation | –
3 | O=S(=O)(F)Cc1ccccc1 [PMSF] | – | – | interrupted schizont maturation | –
4 | c1cnc2c(c1)ccc1cccnc12 [1,10-phenanthroline] | – | – | interrupted schizont maturation | –
5 | O=C(O)CN(CCOCCOCCN(CC(=O)O)CC(=O)O)CC(=O)O [EGTA] | inhibited the formation of only PfAMA-148+44 | – | – | accumulation of PfAMA-1 66 [1, 3]: caused accumulation of PfAMA-166; inhibition of RBC invasion [2]: ~20%; schizont rupture (P. falciparum schizonts; 1 mM): did not affect schizont rupture
6 | Cc1ccc(S(=O)(=O)N[C@@H](Cc2ccccc2)C(=O)CCl)cc1 [TPCK] | – | – | interrupted schizont maturation | –
7 | O=C(O)CN(CCN(CC(=O)O)CC(=O)O)CC(=O)O [EDTA] | inhibited the formation of only PfAMA-148+44 | – | – | accumulation of PfAMA-1 66 [1, 3]: caused accumulation of PfAMA-166; inhibition of RBC invasion [2]: ~40%; schizont rupture (P. falciparum schizonts): did not affect schizont rupture
8 | CC(C)C[C@H](NC(=O)[C@H]1O[C@@H]1C(=O)O)C(=O)NCCCCN=C(N)N [E64] | – | PCM's were observed | – | –
9 | CC(=O)N[C@@H](CC(C)C)C(=O)N[C@@H](CC(C)C)C(=O)N[C@H](C=O)CCCNC(=N)N [leupeptin] | – | PCM's were observed | – | –
